Assay results as given in patent US20180110754A1, “CENICRIVIROC FOR THE TREATMENT OF FIBROSIS” (Tobira Therapeutics, Inc., priority 2015, published 2018).

Assays:
HIV-1 = test: Study 202 Phase 2b: virologic response (HIV-1 RNA <50 copies/mL, FDA Snapshot); type: in vivo, human; conditions: EFV + FTC/TDF
Description: Subjects with a history of HIV-2, hepatitis B and/or C, cirrhosis of the liver or any known active or chronic active liver disease were excluded from the study.
The primary efficacy endpoint was virologic response at Week 24, defined as HIV-1 RNA<50 copies/mL using the FDA Snapshot Algorithm.

[1] = test system: MCP-1, sCD14, hs-CRP, IL-6, D-dimer, fibrinogen; test: Study 202: biomarkers of inflammation and immune function; type: in vivo, human; conditions: EFV 600 mg
Experimental: As an exploratory analysis, levels of inflammation biomarkers MCP-1, sCD14, high sensitivity C-reactive protein [hs-CRP], interleukin-6 [IL-6], D-dimer, and fibrinogen) were measured. Baseline values and changes from baseline at Week 24 and Week 48 of MCP-1, sCD14, hs-CRP, IL-6, D-dimer, and fibrinogen are summarized in Table 25.
The sCD14 samples were originally analyzed in 2 separate batches: Batch 1 included samples leading up to the Week 24 primary analysis and Batch 2 included Week 32 and Week 48 (end of study) samples. A repeat analysis of archived samples all analyzed in one batch was conducted for consistency in analysis across time points. To control for the effects of covariates, a linear mixed-model repeated-measures analysis was conducted on the changes from baseline in sCD14 (analysis dated September 2013).

[2] = Study 202: treatment-emergent laboratory abnormalities (DAIDS grades; CPK, ALT, AST, bilirubin); type: in vivo; conditions: All CVC (N = 115), EFV (N = 28)
Description: The number of subjects with graded treatment-emergent laboratory abnormalities in selected liver parameters of interest is shown in Table 34. No Grade 4 ALT or AST elevations were observed. Except for one Grade 3 AST elevation, all ALT and AST elevations were Grade 1 or Grade 2. […] All abnormalities in bilirubin were Grade 1 or Grade 2. […]

O=C1Nc2ccc(Cl)cc2[C@@](C#CC2CC2)(C(F)(F)F)O1 [EFV, efavirenz, reference compound]
Virologic success (HIV-1 RNA <50 copies/mL) (HIV-1; Week 24): 71% | Virologic success (HIV-1 RNA <50 copies/mL) (HIV-1; Week 48): 50% | D-dimer baseline value, mean [1]: 163 ng/mL | D-dimer baseline value, median [1]: 150 ng/mL | D-dimer change from baseline at Week 24, mean [1]: -53 ng/mL | D-dimer change from baseline at Week 24, median [1]: -26 ng/mL | D-dimer change from baseline at Week 48, mean [1]: -34 ng/mL | D-dimer change from baseline at Week 48, median [1]: 0.0 ng/mL | Fibrinogen baseline value, mean [1]: 258 mg/dL | Fibrinogen baseline value, median [1]: 245 mg/dL | Fibrinogen change from baseline at Week 24, mean [1]: -28 mg/dL | Fibrinogen change from baseline at Week 24, median [1]: -31 mg/dL | Fibrinogen change from baseline at Week 48, mean [1]: -30 mg/dL | Fibrinogen change from baseline at Week 48, median [1]: -22 mg/dL | IL-6 baseline value, mean [1]: 13.81 pg/mL | IL-6 baseline value, median [1]: 1.90 pg/mL | IL-6 change from baseline at Week 24, mean [1]: -8.72 pg/mL | IL-6 change from baseline at Week 24, median [1]: 0.00 pg/mL | IL-6 change from baseline at Week 48, mean [1]: -13.11 pg/mL | IL-6 change from baseline at Week 48, median [1]: 0.00 pg/mL | MCP-1 baseline value, mean [1]: 139 pg/mL | MCP-1 baseline value, median [1]: 122 pg/mL | MCP-1 change from baseline at Week 24, mean [1]: -44 pg/mL | MCP-1 change from baseline at Week 24, median [1]: -17 pg/mL | MCP-1 change from baseline at Week 48, mean [1]: 4.2 pg/mL | MCP-1 change from baseline at Week 48, median [1]: 33.6 pg/mL | hs-CRP baseline value, mean [1]: 0.81 mg/dL | hs-CRP baseline value, median [1]: 0.14 mg/dL | hs-CRP change from baseline at Week 24, mean [1]: -0.46 mg/dL | hs-CRP change from baseline at Week 24, median [1]: -0.01 mg/dL | hs-CRP change from baseline at Week 48, mean [1]: -0.71 mg/dL | hs-CRP change from baseline at Week 48, median [1]: -0.03 mg/dL | sCD14 (original values) baseline value, mean [1]: 2e+06 pg/mL | sCD14 (original values) baseline value, median [1]: 2.02e+06 pg/mL | sCD14 (original values) change from baseline at Week 12, mean [1]: 90000 pg/mL | sCD14 (original values) change from baseline at Week 12, median [1]: 180000 pg/mL | sCD14 (original values) change from baseline at Week 24, mean [1]: 230000 pg/mL | sCD14 (original values) change from baseline at Week 24, median [1]: 130000 pg/mL | sCD14 (original values) change from baseline at Week 32, mean [1]: 480000 pg/mL | sCD14 (original values) change from baseline at Week 32, median [1]: 170000 pg/mL | sCD14 (original values) change from baseline at Week 48, mean [1]: 640000 pg/mL | sCD14 (original values) change from baseline at Week 48, median [1]: 460000 pg/mL | Any graded (Grade 1-4) treatment-emergent laboratory abnormality, n subjects [2]: 25 | Laboratory abnormality, worst Grade 1, n subjects [2]: 13 | Laboratory abnormality, worst Grade 2, n subjects [2]: 8 | Laboratory abnormality, worst Grade 3 (Any Grade 3 abnormality), n subjects [2]: 3 | Laboratory abnormality, worst Grade 4 (Any Grade 4 abnormality), n subjects [2]: 1 | ALT, worst Grade 1, n subjects ([2]; through Week 48): 2 | ALT, worst Grade 2, n subjects ([2]; through Week 48): 0 | ALT, worst Grade 3, n subjects ([2]; through Week 48): 0 | ALT, worst Grade 4, n subjects ([2]; through Week 48): 0 | AST, worst Grade 1, n subjects ([2]; through Week 48): 3 | AST, worst Grade 2, n subjects ([2]; through Week 48): 0 | AST, worst Grade 3, n subjects ([2]; through Week 48): 0 | AST, worst Grade 4, n subjects ([2]; through Week 48): 0 | Alanine aminotransferase (ALT) abnormality, any grade, n subjects ([2]; through Week 48): 2 | Any Grade 3 or Grade 4 laboratory abnormality, n subjects ([2]; through Week 48): 4 | Aspartate aminotransferase (AST) abnormality, any grade, n subjects ([2]; through Week 48): 3 | Aspartate aminotransferase (AST) increased (Grade 3 or 4), n subjects ([2]; through Week 48): 0 | Bilirubin abnormality, any grade, n subjects ([2]; through Week 48): 1 | Bilirubin, worst Grade 1, n subjects ([2]; through Week 48): 1 | Bilirubin, worst Grade 2, n subjects ([2]; through Week 48): 0 | Bilirubin, worst Grade 3, n subjects ([2]; through Week 48): 0 | Bilirubin, worst Grade 4, n subjects ([2]; through Week 48): 0 | CPK increased, worst Grade 3, n subjects ([2]; through Week 48): 2 | CPK increased, worst Grade 4, n subjects ([2]; through Week 48): 0 | Creatine phosphokinase (CPK) increased (Grade 3 or 4), n subjects ([2]; through Week 48): 2 | Fibrinogen decreased (Grade 3 or 4), n subjects ([2]; through Week 48): 0 | Fibrinogen decreased, worst Grade 3, n subjects ([2]; through Week 48): 0 | Fibrinogen decreased, worst Grade 4, n subjects ([2]; through Week 48): 0 | Hemoglobin decreased (Grade 3 or 4), n subjects ([2]; through Week 48): 0 | Hemoglobin decreased, worst Grade 3, n subjects ([2]; through Week 48): 0 | Hemoglobin decreased, worst Grade 4, n subjects ([2]; through Week 48): 0 | Neutrophils decreased (Grade 3 or 4), n subjects ([2]; through Week 48): 1 | Neutrophils decreased, worst Grade 3, n subjects ([2]; through Week 48): 0 | Neutrophils decreased, worst Grade 4, n subjects ([2]; through Week 48): 1 | Phosphate decreased (Grade 3 or 4), n subjects ([2]; through Week 48): 1 | Phosphate decreased, worst Grade 3, n subjects ([2]; through Week 48): 1 | Phosphate decreased, worst Grade 4, n subjects ([2]; through Week 48): 0 | Prothrombin time/INR increased, worst Grade 3, n subjects ([2]; through Week 48): 0 | Prothrombin time/INR increased, worst Grade 4, n subjects ([2]; through Week 48): 0 | Prothrombin time/international normalized ratio increased (Grade 3 or 4), n subjects ([2]; through Week 48): 0
